{"source": "patent EP2213288A1", "about": "(Welte, Karl, priority 2009, dated 2010)", "key": {"CD34^+ cells": {"test_system": "CD34^+ cells", "test": "NAMPT inhibition (FK866) or G-CSFR knock-down in G-CSF- or NAMPT-stimulated CD34+ cells", "text": "NAMPT is induced by G-CSF, so it was further analyzed whether this enzyme is required for G-CSF-triggered granulopoiesis.\nDNA oligonucleotides corresponding to position 642 bp to 660 bp of the human CSF3R gene sequence were chemically synthesized. These nucleotides also contained overhang sequences from a 5' BglII- and a 3'HindIII- restriction sites. The numbering of the first nucleotide of the shRNAs refers to the ATG start codon. The oligonucleotide sequences was as follows […] (Seq. ID No. 3). The oligonucleotides were inserted into the BglII/HindIII-digested pSUPER-derived plasmid to generate pSUPER-CSF3R_642 and verified the isolated clone by DNA sequencing. To generate lentiviral transgenic plasmids containing shRNA expression cassettes located in the U3 region of the […]3'-LTR pRRL,PPT.SF.DsRedEx.pre was used. pRRL.PPT.SF.DsRedEx.pre is a derivative of the standard lentiviral vector pRRL.PPT.PGK, DsRedEx.pre (kindly provided by Luigi Naldini, Milano, Italy) using an internal SFFV promoter. To generate the lentiviral CSF3R_642-SR plasmid, the pSUPER-CSF3R_642 was digested with SmaI and HincII and ligated the resulting DNA fragments (360 bp) into the SnaBI site of the pRRL.PPT.SF.DsRedEx,pre. The lentiviral plasmid encodes RFPEXPRESS as reporter gene."}, "[1]": {"test": "Treatment of healthy individuals with vitamin B3, blood cell analysis", "format": "in vivo, human"}, "[2]": {"test_system": "CD34^+ bone marrow progenitor cells from healthy individuals", "test": "Granulocytic/myeloid differentiation of cultured CD34+ cells from healthy individuals (FACS, qRT-PCR, ELISA, NAD+ measurement)", "format": "cell-based, human", "conditions": "FACS analysis; nicotinamide 1 mM or 10 mM; lentiviral transduction MOI 1-2", "procedure": "Bone marrow and peripheral blood mononuclear cells were isolated by Ficoll-Hypaque gradient centrifugation (Amersham Biosciences) and positively selected bone marrow CD34^+ and CD33^+ cells by sequential immunomagnetic labeling with corresponding magnetic cell-sorting beads (Miltenyi Biotech). Peripheral blood PMNs were isolated by Ficoll-Hypaque gradient centrifugation and by subsequent hypotonic lysis of erythrocytes in cell pellet, Cells were counted and viability was assessed by trypan blue dye exclusion. The purity of sorted CD34^+ cells, CD33^+ cells and PMNs was more than 96% as assessed by FACS analysis and by staining with May-Grünwald-Giemsa.\nPurified PMNs and CD33^+ cells were cultured in RPMI-1640 medium supplemented with 1% heat-inactivated autologous human serum with or without addition of 10 ng ml^-1 of recombinant human G-CSF (rhG-CSF) (Cell Systems Biotechnology). […] For assessment of G-CSFR protein expression cells were stained with unconjugated antibody to mouse G-CSFR and secondary FITC-conjugated antibody and measured G-CSFR expression by FACS. […] G-CSF protein was measured by G-CSF-specific ELISA from R&D Systems and NAMPT protein by NAMPT specific carboxy-terminal enzyme immunometric assay (Phoenix Pharmaceuticals)."}, "[3]": {"conditions": "25-50 mg kg^-1 d^-1, subjects with type 1 diabetes; cited from earlier work"}, "[4]": {"test_system": "promyelocytic leukemia cell line HL-60", "test": "Myeloid differentiation of HL-60 cells", "procedure": "Granulocytic differentiation was characterized by FACS analysis of cells stained with antibody specific to CD16 (Immunotools), CD15 (BD Pharmigen) or CD11b (BD Pharmigen) and by morphological assessment of Wright-Giemsa-stained cytospin slides. […] We cultured HL-60 cells in the presence of 10 ng ml^-1 human rhG-CSF(Cell systems Biotechnoogy), 10 ng ml^-1 human rhNAMPT (Phoenix Pharmaceuticals) or 0.1µM ATRA (Sigma). For the measurement of NAD^+, 0.5 M ice-cold HClO4 was added to the cells, or cell culture supernatants or plasma; after 2 min, 100µl of supernatants was collected by centrifugation at 3,000g for 5 min, was 20µl K2HPO4 (1 M) added with cooling on ice and adjusted pH to 7.2-7.4 with KOH. 50µl of supernatant was given to the reaction mixture containing 0.1 M sodiumpyrophosphate-semicarbazid (Sigma) (pH 8.8), absolute ethanol and dH2O, NAD^+ spectrophotometrically was assessed at 339 nm at room temperature (25°C) as as mean difference in absorbance before (A1) and 6 min after (A2) addition of alcohol dehydrogenase (Roche)."}}}
{"smiles": "O=C(/C=C/c1cccnc1)NCCCCC1CCN(C(=O)c2ccccc2)CC1", "note": "[FK866]", "values": [{"measurement": "cell viability and proliferation", "setting": "CD34^+ cells; 1 nM FK866", "value": "no effect"}, {"measurement": "G-CSF induction of C/EBPα or C/EBPβ mRNA expression and G-CSFR mRNA or protein expression", "setting": "CD34^+ cells; NAMPT activity inhibited with FK866", "value": "unable to induce"}, {"measurement": "G-CSF or iNAD^+ levels in G-CSF- or NAMPT-stimulated cells", "setting": "CD34^+ cells; cells pretreated with FK866", "value": "no increase"}, {"measurement": "G-CSF-triggered granulocytic differentiation", "setting": "CD34^+ cells; pretreatment with 1 nM FK866, then G-CSF", "value": "substantially abrogated"}]}
{"smiles": "NC(=O)c1cccnc1", "note": "[vitamin B3, nicotinamide]", "values": [{"measurement": "increase in the neutrophilic granulocyte content", "setting": "[1]; 10-20 mg kg^-1 d^-1, within 2 d", "value": "up to twofold"}, {"measurement": "iNAD^+ levels in PMNs", "setting": "[1]; compared with steady-state levels", "value": "Increased"}, {"measurement": "C/EBPα and C/EBPβ mRNA levels in bone marrow CD34^+ cells, CD33^+ cells and in peripheral blood PMNs", "setting": "[1]; healthy individuals", "value": "upregulation"}, {"measurement": "CD34^+ hematopoietic progenitor cells in peripheral blood", "setting": "[1]; healthy individuals", "value": "mobilisation"}, {"measurement": "Other blood cell lineages", "setting": "[1]; healthy individuals", "value": "unaffected"}, {"measurement": "decline of neutrophil numbers to the physiological level after discontinuation", "setting": "[1]; healthy individuals", "value": "2-3 d"}, {"measurement": "time after initiation of treatment at which increased neutrophil numbers were detected", "setting": "[1]; healthy individuals", "value": "1 to 2", "unit": "days"}, {"measurement": "numbers of neutrophilic granulocytes", "setting": "[1]; six healthy individuals, 10 mg per kg per d for 1 week", "value": "significant increases"}, {"measurement": "adverse effects", "setting": "[1]; treated healthy individuals", "value": "no adverse effects"}, {"measurement": "myeloid differentiation of CD34^+ cells", "setting": "[2]", "value": "induced myeloid differentiation of CD34^+ cells in a dose-dependent manner"}, {"measurement": "side effects", "setting": "[3]", "value": "no side effects"}]}
{"smiles": "CC1=C(/C=C/C(C)=C/C=C/C(C)=C/C(=O)O)C(C)(C)CCC1", "note": "[ATRA, all-trans-retinoid acid]", "values": [{"measurement": "myeloid (granulocytic) differentiation of HL-60 cells", "setting": "[4]; 10 ng ml^-1 rhG-CSF, 10 ng ml^-1 rhNAMPT or 0.1µM ATRA, or lentiviral transduction", "value": "differentiates into granulocytes"}, {"measurement": "levels of iNAD^+ as well as mRNAs of SIRT1, C/EBPα and C/EBPβ", "setting": "[4]; compared with untreated controls", "value": "Elevated levels"}]}
